Starred links: 1 amine or outer side, 2 acyl side, 3 side chain; linkers in the order of their positions; H or OH if unused. Non-standard residues stand in square brackets, D forms with d. Primed or numbered codes have the meaning given here. *: point of attachment. Tyr(2,6Cl2-Z) = 2,6-dichlorobenzyl-L-tyrosine, O=C([C@H](Cc1ccc(OCc2c(Cl)cccc2Cl)cc1)N[*:1])[*:2]; Glu(Bzl) = L-glutamic acid benzyl ester, O=C(CC[C@H](N[*:1])C(=O)[*:2])OCc1ccccc1; diphenyl phosphonate = C-terminal diphenyl phosphonate (Arg^P(OPh)2); BODIPY(FL) = CC1=CC(C)=[N+]2C1=Cc1ccc(CCC(=O)*)n1[B-]2(F)F; 1Nal = N[C@@H](Cc1cccc2ccccc12)C(=O)O; ACC = NC(=O)Cc1cc(=O)oc2cc(N*)ccc12; Igl = N[C@H](C(=O)O)C1Cc2ccccc2C1; hArg = N=C(N)NCCCC[C@H](N)C(=O)O; Agp = N=C(N)NC[C@H](N)C(=O)O; PEG4′ = PEG linker, 4 units; Nle = CCCC[C@H](N)C(=O)O; Dab = NCC[C@H](N)C(=O)O; Cbz = O=C(OCc1ccccc1)*; Cy3 = Cy3 fluorophore; Ahx = NCCCCCC(=O)O
What was measured:
Format in all cases: biochemical
fXa = fXa (Homo sapiens, UniProt P00742); experiment: Inhibition kinetics (kobs/I) under pseudo first-order conditions, fXa; details: 10 nM fXa, substrate 50 μM SMII18, pH 7.4, 37° C.
Method: (§1) The Kobs/l parameters towards APC, fIIa, fXa, and fXIa were measured under pseudo first-order conditions (Table 1). The assay buffer contained 20 mM Tris-base, 150 mM NaCl, 5 mM CaCl2), pH 7.4. Each ABP or inhibitor was serially diluted until the seventh well to obtain the concentrations ranging from 308 nM to 100 µM, depending on the ABP/inhibitor used. The assay conditions were as follows: 20 μL of selected substrate (154 μM SMA5 for APC, 100 μM SMA4 for fIIa, 50 μM SMII18 for fXa, and 100 μM SMX1 for fXIa) was added into the wells containing 20 μL of seven different ABP/inhibitor concentrations. Next, 60 μL of APC, fIIa, fXa, or fXIa (at the concentration of 10 nM) preincubated for 15 min at 37° C. was added, and the fluorescence increase over time was measured (λex=355 nm, λem=460 nm) for 30 min. The Kobs/l values were calculated using GraphPad Prism and Microsoft Excel software as described previously.

APC [1] = biological target: T1, APC (Homo sapiens, UniProt P04070); experiment: Screen of APC tetrapeptide fluorogenic substrates; details: for activity and selectivity for APC in the substrate screen: out of substrates SMA1-SMA26
Method: (§2) To minimize potential cross reactivity, a detailed kinetic analysis of the four APC-selective substrates was performed against the other proteases.

APC [2] = biological target: T1, APC; experiment: Kinetic parameters (kcat/KM) of fluorogenic substrates, APC; details: APC versus other coagulation factors
Method: The Kcat/KM parameters towards APC, thrombin and fXa were measured using the procedure described in Modrzycka et al. Chemical Science, 2022, 13, 6813-6829.

[3] = test system: other coagulation factors; experiment: Substrate hydrolysis by other coagulation factors
Method: as §2

APC [4] = biological target: T1, APC; experiment: Inhibition kinetics (kobs/I) under pseudo first-order conditions, APC; details: 10 nM APC, substrate 154 μM SMA5, pH 7.4, 37° C.
Method: as §1

fXIa = fXIa (Homo sapiens, UniProt P03951); experiment: Inhibition kinetics (kobs/I) under pseudo first-order conditions, fXIa; details: 10 nM fXIa, substrate 100 μM SMX1, pH 7.4, 37° C.
Method: as §1

fIIa = fIIa (Homo sapiens, UniProt P00734); experiment: Inhibition kinetics (kobs/I) under pseudo first-order conditions, fIIa; details: 10 nM fIIa, substrate 100 μM SMA4, pH 7.4, 37° C.
Method: as §1

T1 sequence (P04070 212-461 limits assumed): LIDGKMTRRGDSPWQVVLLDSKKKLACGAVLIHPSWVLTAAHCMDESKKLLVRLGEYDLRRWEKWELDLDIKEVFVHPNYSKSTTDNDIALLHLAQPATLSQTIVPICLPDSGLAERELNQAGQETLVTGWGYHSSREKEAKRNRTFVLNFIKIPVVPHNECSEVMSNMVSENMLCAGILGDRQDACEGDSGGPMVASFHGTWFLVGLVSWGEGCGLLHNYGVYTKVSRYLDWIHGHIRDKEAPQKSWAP
T1 sequence (P04070 43-197 partner limits assumed): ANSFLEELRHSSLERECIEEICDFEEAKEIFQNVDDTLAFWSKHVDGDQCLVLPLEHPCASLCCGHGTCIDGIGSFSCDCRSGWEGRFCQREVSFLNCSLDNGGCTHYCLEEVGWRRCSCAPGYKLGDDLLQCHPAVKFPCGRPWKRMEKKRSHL
fXIa, sequence (P03951 388-625 limits assumed): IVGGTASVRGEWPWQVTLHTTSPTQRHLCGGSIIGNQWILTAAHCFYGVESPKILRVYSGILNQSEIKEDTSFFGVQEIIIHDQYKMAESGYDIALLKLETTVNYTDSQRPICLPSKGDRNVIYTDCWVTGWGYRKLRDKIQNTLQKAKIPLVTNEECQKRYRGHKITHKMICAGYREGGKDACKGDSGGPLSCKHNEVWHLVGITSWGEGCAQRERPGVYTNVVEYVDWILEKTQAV
fXIa, sequence (P03951 19-387 partner limits assumed): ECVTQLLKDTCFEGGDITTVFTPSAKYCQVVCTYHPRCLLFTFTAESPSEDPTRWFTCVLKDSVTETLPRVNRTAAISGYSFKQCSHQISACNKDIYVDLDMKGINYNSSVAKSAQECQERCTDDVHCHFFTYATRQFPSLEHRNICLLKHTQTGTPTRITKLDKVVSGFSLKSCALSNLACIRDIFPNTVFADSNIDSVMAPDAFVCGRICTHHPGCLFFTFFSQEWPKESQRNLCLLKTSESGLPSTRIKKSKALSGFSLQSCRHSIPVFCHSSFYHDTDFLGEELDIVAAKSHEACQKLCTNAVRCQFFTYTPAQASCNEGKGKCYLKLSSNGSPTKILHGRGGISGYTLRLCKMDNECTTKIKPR
fXa, sequence (P00742 235-488 limits assumed): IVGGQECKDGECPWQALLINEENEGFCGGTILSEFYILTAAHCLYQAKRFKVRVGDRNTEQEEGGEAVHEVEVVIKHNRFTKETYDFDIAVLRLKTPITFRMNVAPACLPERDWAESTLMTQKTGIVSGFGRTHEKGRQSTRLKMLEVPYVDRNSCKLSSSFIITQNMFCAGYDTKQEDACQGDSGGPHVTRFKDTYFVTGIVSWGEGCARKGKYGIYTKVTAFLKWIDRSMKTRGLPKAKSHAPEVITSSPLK
fXa, sequence (P00742 41-179 partner limits assumed): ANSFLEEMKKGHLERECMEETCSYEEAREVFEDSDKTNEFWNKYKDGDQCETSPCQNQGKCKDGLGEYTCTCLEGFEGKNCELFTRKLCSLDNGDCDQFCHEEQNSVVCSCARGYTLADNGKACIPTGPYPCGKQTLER

Substance: Ac-DPro-hArg-1-Nal-Arg^P(OPh)2 (Ac-[dP][hArg][1Nal]R-{diphenyl phosphonate}) [I-SMX15]
- kobs/I fXa (fXa): 1,200 ± 100 M^−1s^−1

Substance: Ac-K[Dab](Cbz)KR-{ACC} [SMA 17]
- activity and selectivity for APC in the substrate screen (APC [1]): showed the most activity and selectivity for APC
- Kcat/KM selectivity ratio (APC [2]): very high
- hydrolysis when tested with other coagulation factors [3]: almost nondetectable

Substance: Ac-K[Dab](Cbz)[Igl]R-{ACC} [SMA 5]
- activity and selectivity for APC in the substrate screen (APC [1]): showed the most activity and selectivity for APC
- cleavage efficiency compared to the best natural substrate (SMA54) (APC [1]; relative to SMA54): approximately 50 fold

Substance: Ac-Lys-Agp-Igl-Arg-ACC (Ac-K[Agp][Igl]R-{ACC}; SMILES CC(=O)N[C@@H](CCCCN)C(=O)N[C@@H](CNC(=N)N)C(=O)N[C@H](C(=O)N[C@@H](CCCNC(=N)N)C(=O)Nc1ccc2c(CC(N)=O)cc(=O)oc2c1)C1Cc2ccccc2C1) [SMA 6, fluorogenic substrate for APC]
- activity and selectivity for APC in the substrate screen (APC [1]): showed the most activity and selectivity for APC

Substance: Ac-Lys-Dab(Z)-Lys-Arg^P(OPh)2 [I-SMA17]
- kobs/I APC (APC [4]): 1,980 ± 20 M^−1s^−1

Substance: Ac-Tyr(2,6Cl2-Z)-Nle-Glu(Bzl)-Arg^P(OPh)2 (Ac-[Tyr(2,6Cl2-Z)][Nle][Glu(Bzl)]R-{diphenyl phosphonate}) [I-SMXI5]
- kobs/I fXIa (fXIa): 54,700 ± 2,800 M^−1s^−1

Substance: Ac-hCha-Cys(MeBzl)-Pip-Arg^P(OPh)2 [I-SMII22]
- kobs/I fIIa (fIIa): 209,000 ± 13,800 M^−1s^−1

Substance: Bodipy-PEG(4)-Tyr(2,6Cl2-Z)-Nle-Glu(Bzl)-Arg^P(OPh)2 ({BODIPY(FL)-PEG4′}-[Tyr(2,6Cl2-Z)][Nle][Glu(Bzl)]R-{diphenyl phosphonate}) [P-SMXI52]
- kobs/I fXIa (fXIa): 3,120 ± 100 M^−1s^−1

Substance: Cy3-6-Ahx-DPro-hArg-1-Nal-Arg^P(OPh)2 ({Cy3-Ahx}-[dP][hArg][1Nal]R-{diphenyl phosphonate}) [P-SMX152]
- kobs/I fXa (fXa): 1,800 ± 100 M^−1s^−1

Substance: Cy5-6-Ahx-Lys-Dab(Z)-Lys-Arg^P(OPh)2 [P-SMA172]
- kobs/I APC (APC [4]): 2,250 ± 170 M^−1s^−1

Substance: Cy7-6-Ahx-hCha-Cys(MeBzl)-Pip-Arg^P(OPh)2 [P-SMII222]
- kobs/I fIIa (fIIa): 3,500 ± 300 M^−1s^−1
